Earlier results on one compound are cited in patent US6048878A, “Substituted piperidine derivatives as selective agonists of 5-HT receptors” (Merck Sharp & Dohme Ltd., priority 1995, dated 2000).

For data set [1] the following is noted: therapeutic doses.
For data set [2], the system named is human 5-HT1D.sbsb.α and 5-HT1D.sbsb.β receptor subtypes. Conditions: cf. WO-A-91/17174, Table 1.

For `CNS(=O)(=O)Cc1ccc2[nH]cc(CCN(C)C)c2c1` [sumatriptan], the “adverse cardiovascular events in humans” value in data set [1] was “certain adverse cardiovascular events”. In data set [2], the “discrimination between the human 5-HT1D.sbsb.α and 5-HT1D.sbsb.β receptor subtypes” value was “barely discriminates”.
